According to ChEMBL document CHEMBL1148291, “Prediction of human volume of distribution values for neutral and basic drugs. 2. Extended data set and leave-class-out statistics” (J Med Chem, 2004):

Key:
in vitro = details: human, plasma
Description: Unbound fraction (plasma)

clinical = details: human, in vivo
Description: Observed volume of distribution

SMILES | pKa | fraction unbound (in vitro) | Vd (clinical) [L/kg]
CCC(C)n1ncn(-c2ccc(N3CCN(c4ccc(OC[C@H]5CO[C@](Cn6cncn6)(c6ccc(Cl)cc6Cl)O5)cc4)CC3)cc2)c1=O (some centres undefined) [ITRACONAZOLE] | Not Active |  | 
C#CCCCC(=O)c1cc(C(C)(C)C)c(O)c(C(C)(C)C)c1 [TEBUFELONE] | Not Active | 0.0007 | 
COc1cc2c(c(OC)c1OC)-c1ccc(OC)c(=O)cc1[C@@H](NC(C)=O)CC2 [COLCHICINE] | Not Active |  | 5.2
C[C@H]1C[C@@H]2[C@H]([C@@H](O)C[C@@]3(C)[C@H]2CC[C@]3(O)C(=O)CO)[C@@]2(C)C=CC(=O)C=C12 [METHYLPREDNISOLONE] | Not Active |  | 
Cc1ncc([N+](=O)[O-])n1CCO [METRONIDAZOLE] | Not Active |  | 
CC(=O)Nc1ccc(O)cc1 [ACETAMINOPHEN] | Not Active |  | 
Oc1ncnc2[nH]ncc12 [ALLOPURINOL] | Not Active |  | 0.6
O=C1CN=C(c2ccccn2)c2cc(Br)ccc2N1 [BROMAZEPAM] | Not Active | 0.39 | 
Cc1cc(=O)n(-c2ccccc2)n1C [ANTIPYRINE] | Not Active |  | 0.6
CN1C(=O)C(O)N=C(c2ccccc2Cl)c2cc(Cl)ccc21 (centres undefined) [LORMETAZEPAM] | Not Active |  | 1.5
C[C@]12C=CC(=O)C=C1CC[C@@H]1[C@@H]2C(=O)C[C@@]2(C)[C@H]1CC[C@]2(O)C(=O)CO [PREDNISONE] | Not Active |  | 
O=C(N[C@H](CO)[C@H](O)c1ccc([N+](=O)[O-])cc1)C(Cl)Cl [CHLORAMPHENICOL] | Not Active |  | 
C=CCN1CC[C@]23c4c5ccc(O)c4O[C@H]2C(=O)CC[C@@]3(O)[C@H]1C5 [NALOXONE] |  | 0.54 | 4.3
C[C@]12CCC(=O)C=C1CC[C@@H]1[C@@H]2[C@@H](O)C[C@@]2(C)[C@H]1CC[C@]2(O)C(=O)CO [HYDROCORTISONE] | Not Active | 0.09 | 0.44
C[C@]12CC[C@H]3[C@@H](CCC4=CC(=O)CC[C@@]43C)[C@@H]1CC[C@@H]2O [TESTOSTERONE] |  | 0.02 | 1.03
CC(=O)O[C@H]1C(=O)[C@@]2(C)[C@H]([C@H](OC(=O)c3ccccc3)[C@]3(O)C[C@H](OC(=O)[C@H](O)[C@@H](NC(=O)c4ccccc4)c4ccccc4)C(C)=C1C3(C)C)[C@]1(OC(C)=O)CO[C@@H]1C[C@@H]2O [PACLITAXEL] | Not Active | 0.07 | 
OC(Cn1cncn1)(Cn1cncn1)c1ccc(F)cc1F [FLUCONAZOLE] | Not Active |  | 0.6
CCOC(=O)C1(c2ccccc2)CCN(C)CC1 [MEPERIDINE] |  | 0.42 | 2.7
Cc1ncc2n1-c1ccc(Cl)cc1C(c1ccccc1F)=NC2 [MIDAZOLAM] |  | 0.02 | 1.4
Nc1c2c(nc3ccccc13)CCCC2 [TACRINE] |  | 0.45 | 8.22
Oc1ccc2c(c1)[C@@]13CCCC[C@@]1(O)[C@@H](C2)N(CC1CCC1)CC3 [BUTORPHANOL] |  | 0.18 | 8.8
CCOC(=O)c1ncn2c1CN(C)C(=O)c1cc(F)ccc1-2 [FLUMAZENIL] |  | 0.5 | 1.1
C[N+](C)([O-])CCC=C1c2ccccc2CCc2ccccc21 [AMITRIPTYLINOXIDE] | Not Active | 0.2 | 1.2
C[C@@H](c1ncncc1F)[C@](O)(Cn1cncn1)c1ccc(F)cc1F [VORICONAZOLE] | Not Active | 0.42 | 4.6
COc1ccc2[nH]c([S+]([O-])Cc3ncc(C)c(OC)c3C)nc2c1 (centres undefined) [OMEPRAZOLE] | Not Active |  | 
CNCCCC12CCC(c3ccccc31)c1ccccc12 [MAPROTILINE] |  | 0.12 | 43
C[C@H]1C[C@H]2[C@@H]3CCC4=CC(=O)C=C[C@]4(C)[C@@]3(F)[C@@H](O)C[C@]2(C)[C@@]1(O)C(=O)CO [BETAMETHASONE] | Not Active |  | 
